{
  "source": "patent US7842710B2",
  "about": "“Carboxamides” (Bayer Cropscience AG, priority 2004, dated 2010)",
  "key": {"[1]": {"test": "logP determination by HPLC on a reverse phase column (C18), EEC Directive 79/831 Annex V.A8", "format": "physicochemical", "details": "pH 2 as printed, HPLC C18, 43° C."}, "Podosphaera leucotricha": {"test_system": "Podosphaera leucotricha", "test": "Podosphaera test (apple)/protective", "format": "in vivo", "details": "protective, application rate 100 g/ha, evaluation ten days after inoculation, 0% = control, 100% = no infestation", "description": "(§1) [table] To produce an appropriate active ingredient preparation, one part by weight of the active substance is mixed with the specified quantities of solvent and emulsifying agent, and the concentrate is diluted with water to the desired concentration. Young plants are sprayed with the active ingredient preparation at the specified application rate to test the effectiveness of protection. After the sprayed coating has dried, the plants are inoculated with an aqueous spore suspension of the apple mildew pathogen Podosphaera leucotricha. Then the plants are placed in the greenhouse at about 23° C. with relative humidity of about 70%. The evaluation is performed ten days after the inoculation. A degree of effectiveness rating of 0% corresponds to the control, with 100% indicating no infestation observed."}, "Venturia inaequalis": {"test_system": "Venturia inaequalis", "test": "Venturia test (apple)/protective", "format": "in vivo", "details": "protective, application rate 100 g/ha, evaluation ten days after inoculation, 0% = control, 100% = no infestation", "description": "as §1, with “conidia” for “spore”, “scab” for “mildew”, “Venturia inaequalis and are then kept in an incubator at 20° C. and 100% relatively humidity for one day.” for “Podosphaera leucotricha.”, “21°” for “23°”, “90%.” for “70%.”"}, "Botrytis cinerea": {"test_system": "Botrytis cinerea", "test": "Botrytis test (bean)/protective", "format": "in vivo", "details": "protective, application rate 500 g/ha, evaluation two days after inoculation, 0% = control, 100% = no infestation", "description": "[table] To produce an appropriate active ingredient preparation, one part by weight of the active substance is mixed with the specified quantities of solvent and emulsifying agent, and the concentrate is diluted with water to the desired concentration. Young plants are sprayed with the active ingredient preparation at the specified application rate to test the effectiveness of protection. After the sprayed coating has dried, two small pieces of agar with cultured Botrytis cinerea are placed on each leaf. The inoculated plants are placed in a darkened chamber at about 20° C. and 100% relatively humidity. Two days after the inoculation, the size of the infestation spots on the leaves is evaluated. A degree of effectiveness rating of 0% corresponds to the control, with 100% indicating no infestation observed."}, "Puccinia recondita": {"test_system": "Puccinia recondita", "test": "Puccinia test (wheat)/protective", "format": "in vivo", "details": "240 h, protective, application rate 500 g/ha, evaluation ten days after inoculation, 0% = control, 100% = no infestation, read-out: Degree of effectiveness in %", "description": "[table] To produce an appropriate active ingredient preparation, one part by weight of the active substance is mixed with the specified quantities of solvent and emulsifying agent, and the concentrate is diluted with water to the desired concentration. Young plants are sprayed with the active ingredient preparation at the specified application rate to test the effectiveness of protection. After the sprayed coating has dried, the plants are sprayed with a conidia suspension of Puccinia recondita. The plants are kept in an incubator at 20° C. and 100% relatively humidity for 48 hours. Then the plants are placed in a greenhouse at a temperature of about 20° C. and a relatively humidity of 80%, in order to promote the development of rust spots. The evaluation is performed ten days after the inoculation. A degree of effectiveness rating of 0% corresponds to the control, with 100% indicating no infestation observed."}, "Alternaria solani": {"test_system": "Alternaria solani", "test": "Alternaria test (tomato)/protective", "format": "in vivo", "details": "protective, application rate 750 g/ha, evaluation seven days after inoculation, 0% = control, 100% = no infestation", "description": "[table] To produce an appropriate active ingredient preparation, one part by weight of the active substance is mixed with the specified quantities of solvent and emulsifying agent, and the concentrate is diluted with water to the desired concentration. Young tomato plants are sprayed with the active ingredient preparation at the specified application rate to test the effectiveness of protection. One day after treatment, the plants are inoculated with a spore suspension of Alternaria solani and are kept for 24 hours at 100% relatively humidity and 20° C. Subsequently, the plants are kept at 96% relatively humidity and a temperature of 20° C. The evaluation is performed seven days after the inoculation. A degree of effectiveness rating of 0% corresponds to the control, with 100% indicating no infestation observed."}},
  "data": [
    {"smiles": "CC(C)S(=O)(=O)C(C)c1ccccc1[N+](=O)[O-]", "note": "(stereo not drawn) [VII-4, 1-[1-(isopropylsulfonyl)ethyl]-2-nitrobenzene]", "values": [
      {"measurement": "chromatographic logP", "setting": "[1]", "value": 1.99}
    ]},
    {"smiles": "Cc1nn(C)c(F)c1C(=O)Nc1ccccc1C(C)SC(C)C", "note": "(stereo not drawn) [drawing 482]", "values": [
      {"measurement": "Degree of effectiveness in %", "setting": "Podosphaera leucotricha", "value": 91, "unit": "%"}
    ]},
    {"smiles": "CC(C)SC(C)c1ccccc1NC(=O)c1cn(C)nc1C(F)F", "note": "(stereo not drawn) [drawing 483]", "values": [
      {"measurement": "Degree of effectiveness in %", "setting": "Podosphaera leucotricha", "value": 84, "unit": "%"}
    ]},
    {"smiles": "CCC(C)SC(C)c1ccccc1NC(=O)c1cn(C)nc1C(F)F", "note": "(stereo not drawn) [drawing 484]", "values": [
      {"measurement": "Degree of effectiveness in %", "setting": "Podosphaera leucotricha", "value": 94, "unit": "%"}
    ]},
    {"smiles": "Cc1nn(C)c(F)c1C(=O)Nc1ccccc1C(C)SC(C)C", "note": "(stereo not drawn) [drawing 485]", "values": [
      {"measurement": "Degree of effectiveness in %", "setting": "Venturia inaequalis", "value": 95, "unit": "%"}
    ]},
    {"smiles": "CCCC(C)SC(C)c1ccccc1NC(=O)c1sc(C)nc1C(F)(F)F", "note": "(stereo not drawn) [drawing 486]", "values": [
      {"measurement": "Degree of effectiveness in %", "setting": "Venturia inaequalis", "value": 89, "unit": "%"}
    ]},
    {"smiles": "CCC(C)SC(C)c1ccccc1NC(=O)c1cn(C)nc1C(F)F", "note": "(stereo not drawn) [drawing 487]", "values": [
      {"measurement": "Degree of effectiveness in %", "setting": "Venturia inaequalis", "value": 99, "unit": "%"}
    ]},
    {"smiles": "CC(C)SC(C)c1ccccc1NC(=O)c1cn(C)nc1C(F)(F)F", "note": "(stereo not drawn) [drawing 488]", "values": [
      {"measurement": "Degree of effectiveness in %", "setting": "Botrytis cinerea", "value": 84, "unit": "%"}
    ]},
    {"smiles": "CC(C)SC(C)c1ccccc1NC(=O)c1cn(C)nc1C(F)F", "note": "(stereo not drawn) [drawing 489]", "values": [
      {"measurement": "Degree of effectiveness in %", "setting": "Botrytis cinerea", "value": 100, "unit": "%"}
    ]},
    {"smiles": "CCCC(C)SC(C)c1ccccc1NC(=O)c1sc(C)nc1C(F)(F)F", "note": "(stereo not drawn) [drawing 490]", "values": [
      {"measurement": "Degree of effectiveness in %", "setting": "Botrytis cinerea", "value": 99, "unit": "%"}
    ]},
    {"smiles": "CCC(C)SC(C)c1ccccc1NC(=O)c1cn(C)nc1C(F)(F)F", "note": "(stereo not drawn) [drawing 491]", "values": [
      {"measurement": "Degree of effectiveness in %", "setting": "Botrytis cinerea", "value": 100, "unit": "%"}
    ]},
    {"smiles": "CCCC(C)SC(C)c1ccccc1NC(=O)c1cn(C)nc1C(F)F", "note": "(stereo not drawn) [drawing 492]", "values": [
      {"measurement": "Degree of effectiveness in %", "setting": "Botrytis cinerea", "value": 97, "unit": "%"}
    ]},
    {"smiles": "CC(C)SC(C)c1ccccc1NC(=O)c1cn(C)cc1C(F)(F)F", "note": "(stereo not drawn) [drawing 493]", "values": [
      {"measurement": "Degree of effectiveness in %", "setting": "Botrytis cinerea", "value": 97, "unit": "%"}
    ]},
    {"smiles": "Cc1nn(C)c(F)c1C(=O)Nc1ccccc1C(C)SC(C)C", "note": "(stereo not drawn) [drawing 502]", "values": [
      {"measurement": "pest or weed control at 500 g/ha", "setting": "Puccinia recondita", "value": 100, "unit": "%"}
    ]},
    {"smiles": "CCC(C)SC(C)c1ccccc1NC(=O)c1cn(C)nc1C", "note": "(stereo not drawn) [drawing 504]", "values": [
      {"measurement": "pest or weed control at 500 g/ha", "setting": "Puccinia recondita", "value": 100, "unit": "%"}
    ]},
    {"smiles": "CCC(C)SC(C)c1ccccc1NC(=O)c1sc(C)nc1C(F)F", "note": "(stereo not drawn) [drawing 505]", "values": [
      {"measurement": "pest or weed control at 500 g/ha", "setting": "Puccinia recondita", "value": 100, "unit": "%"}
    ]},
    {"smiles": "CCCC(C)SC(C)c1ccccc1NC(=O)c1sc(C)nc1C(F)F", "note": "(stereo not drawn) [drawing 506]", "values": [
      {"measurement": "pest or weed control at 500 g/ha", "setting": "Puccinia recondita", "value": 100, "unit": "%"}
    ]},
    {"smiles": "CCC(C)SC(C)c1ccccc1NC(=O)c1cn(C)nc1C(F)F", "note": "(stereo not drawn) [drawing 507]", "values": [
      {"measurement": "pest or weed control at 500 g/ha", "setting": "Puccinia recondita", "value": 100, "unit": "%"}
    ]},
    {"smiles": "CCC(C)SC(C)c1ccccc1NC(=O)C1=C(C)OCCS1", "note": "(stereo not drawn) [drawing 508]", "values": [
      {"measurement": "pest or weed control at 500 g/ha", "setting": "Puccinia recondita", "value": 100, "unit": "%"}
    ]},
    {"smiles": "CC1=C(C(=O)Nc2ccccc2C(C)SC(C)C)SCCO1", "note": "(stereo not drawn) [drawing 509]", "values": [
      {"measurement": "pest or weed control at 500 g/ha", "setting": "Puccinia recondita", "value": 100, "unit": "%"}
    ]},
    {"smiles": "CC(C)SC(C)c1ccccc1NC(=O)c1cn(C)cc1C(F)(F)F", "note": "(stereo not drawn) [drawing 510]", "values": [
      {"measurement": "pest or weed control at 500 g/ha", "setting": "Puccinia recondita", "value": 100, "unit": "%"}
    ]},
    {"smiles": "CC(C)OCc1ccccc1NC(=O)c1cn(C)nc1C(F)(F)F", "note": "[drawing 515]", "values": [
      {"measurement": "Degree of effectiveness in %", "setting": "Alternaria solani", "value": 95, "unit": "%"}
    ]},
    {"smiles": "Cc1nn(C)c(F)c1C(=O)Nc1ccccc1C(C)SC(C)C", "note": "(stereo not drawn) [drawing 516]", "values": [
      {"measurement": "Degree of effectiveness in %", "setting": "Alternaria solani", "value": 90, "unit": "%"}
    ]},
    {"smiles": "CCC(C)SC(C)c1ccccc1NC(=O)c1c(C)nn(C)c1F", "note": "(stereo not drawn) [drawing 517]", "values": [
      {"measurement": "Degree of effectiveness in %", "setting": "Alternaria solani", "value": 95, "unit": "%"}
    ]}
  ]
}
